US20240150377A1, “MODULATORS OF CYSTIC FIBROSIS TRANSMEMBRANE CONDUCTANCE REGULATOR” (VERTEX PHARMACEUTICALS INCORPORATED, priority 2020, published 2024)
Read-outs that look alike come from different tables or passages of the source. Each block holds one compound with its values, some of them ahead of it.

Columns and labels:
Format in all cases: cell-based
F508del = target: T1, F508del (Homo sapiens, UniProt P13569, DEL508-508); assay: 3T3 assay: membrane potential optical assay for F508del correction; settings: F508del NIH 3T3 cells; for Emax: NIH3T3, compared to lumacaftor in combination with acutely added 300 nM Ivacaftor, read-out: 3T3 Max Activity; for EC50: 18-24 hours at 37° C., forskolin, acutely added 300 nM Ivacaftor
T1 construct: expressed in transfected cells
T1 sequence (P13569 with tags, fused parts or gaps DEL508-508): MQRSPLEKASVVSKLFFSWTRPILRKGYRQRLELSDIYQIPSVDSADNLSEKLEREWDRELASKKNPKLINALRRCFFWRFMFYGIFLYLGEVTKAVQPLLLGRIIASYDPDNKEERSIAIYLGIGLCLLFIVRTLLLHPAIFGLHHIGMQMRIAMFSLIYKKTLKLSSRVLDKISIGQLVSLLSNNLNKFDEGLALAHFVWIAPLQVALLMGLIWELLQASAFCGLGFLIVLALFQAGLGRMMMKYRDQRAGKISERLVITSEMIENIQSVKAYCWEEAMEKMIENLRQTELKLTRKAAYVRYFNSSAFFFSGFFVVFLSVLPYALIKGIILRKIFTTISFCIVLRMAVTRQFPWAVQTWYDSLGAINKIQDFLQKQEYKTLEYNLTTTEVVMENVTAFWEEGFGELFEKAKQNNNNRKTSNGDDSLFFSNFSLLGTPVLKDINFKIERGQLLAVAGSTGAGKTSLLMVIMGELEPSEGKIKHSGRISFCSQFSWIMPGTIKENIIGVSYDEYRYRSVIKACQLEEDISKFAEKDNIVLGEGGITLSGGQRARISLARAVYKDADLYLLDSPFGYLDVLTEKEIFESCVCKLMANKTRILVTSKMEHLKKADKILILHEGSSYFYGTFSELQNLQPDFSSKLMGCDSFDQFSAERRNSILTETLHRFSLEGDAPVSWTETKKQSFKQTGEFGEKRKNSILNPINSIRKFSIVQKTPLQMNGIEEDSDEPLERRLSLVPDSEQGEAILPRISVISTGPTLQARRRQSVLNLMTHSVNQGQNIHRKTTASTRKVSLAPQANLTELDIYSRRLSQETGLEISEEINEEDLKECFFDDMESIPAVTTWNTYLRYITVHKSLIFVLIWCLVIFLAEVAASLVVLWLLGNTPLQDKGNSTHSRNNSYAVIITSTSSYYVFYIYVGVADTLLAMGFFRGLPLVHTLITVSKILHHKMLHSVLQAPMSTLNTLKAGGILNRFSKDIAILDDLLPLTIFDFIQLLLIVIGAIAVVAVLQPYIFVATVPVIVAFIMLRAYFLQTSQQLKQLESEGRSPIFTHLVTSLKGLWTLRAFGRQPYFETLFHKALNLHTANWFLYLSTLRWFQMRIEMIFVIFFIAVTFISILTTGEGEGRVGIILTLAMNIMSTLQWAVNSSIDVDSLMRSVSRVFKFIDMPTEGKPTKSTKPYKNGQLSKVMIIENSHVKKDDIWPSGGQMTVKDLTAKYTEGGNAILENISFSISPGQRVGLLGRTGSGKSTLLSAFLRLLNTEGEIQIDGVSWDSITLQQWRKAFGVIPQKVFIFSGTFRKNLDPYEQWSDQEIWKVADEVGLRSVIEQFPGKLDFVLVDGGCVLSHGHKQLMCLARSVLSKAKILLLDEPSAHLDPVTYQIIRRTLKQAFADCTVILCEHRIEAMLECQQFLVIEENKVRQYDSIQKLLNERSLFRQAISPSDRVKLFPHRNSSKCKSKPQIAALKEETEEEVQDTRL
Source text: 1. Membrane Potential Optical Methods for Assaying F508del Modulation Properties of Compounds
The assay utilizes fluorescent voltage sensing dyes to measure changes in membrane potential using a fluorescent plate reader (e.g., FLIPR III, Molecular Devices, Inc.) as a readout for increase in functional F508del in NIH 3T3 cells. The driving force for the response is the creation of a chloride ion gradient in conjunction with channel activation by a single liquid addition step after the cells have previously been treated with compounds and subsequently loaded with a voltage sensing dye.
2. Identification of Corrector Compounds
To identify correctors of F508del, a single-addition HTS assay format was developed. This HTS assay utilizes fluorescent voltage sensing dyes to measure changes in membrane potential on the FLIPR III as a measurement for increase in gating (conductance) of F508del in F508del NIH 3T3 cells. The F508del NIH 3T3 cell cultures were incubated with the corrector compounds at a range of concentrations for 18-24 hours at 37° C., and subsequently loaded with a redistribution dye. The driving force for the response is a Cl^− ion gradient in conjunction with channel activation with forskolin in a single liquid addition step using a fluorescent plate reader such as FLIPR III.
Bath Solution #1: (in mM) NaCl 160, KCl 4.5, CaCl2) 2, MgCl2 1, HEPES 10, pH 7.4 with NaOH.
Chloride-free bath solution: Chloride salts in Bath Solution #1 (above) are substituted with gluconate salts.
NIH3T3 mouse fibroblasts stably expressing F508del are used for optical measurements of membrane potential. The cells are maintained at 37° C. in 5% CO2 and 90% humidity in Dulbecco's modified Eagle's medium supplemented with 2 mM glutamine, 10% fetal bovine serum, 1× NEAA, b-ME, 1×pen/strep, and 25 mM HEPES in 175 cm^2 culture flasks. For all optical assays, the cells were seeded at ˜20,000/well in 384-well Matrigel-coated plates. For the correction assays, the cells are cultured at 37° C. with and without compounds for 16-24 hours.

CFTR [1] = target: T2, CFTR (Homo sapiens, UniProt P13569); assay: Membrane potential dye, Enteroid Assay A; settings: for Ent. A Max Activity: chloride transport as % of triple combination control (Enteroid Assay A); for EC50: read-out: Ent. A EC50
T2 sequence (P13569 with tags, fused parts or gaps DEL508-508): as above
In short: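 % Activity: chloride transport relative to a 3 μM/3 μM corrector pair plus 300 nM acute potentiator control. Primary human enteroid cells, 18-24 h compound exposure at 37 °C; membrane potential dye (methyl oxonol) fluorescence over 15 min after forskolin (10 μM)/IBMX (100 μM)/Compound III (300 nM) stimulation in chloride-free buffer.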

CFTR [2] = target: T2, CFTR; assay: Membrane potential dye, Enteroid Assay B; settings: for Ent. B Max Activity: chloride transport as % of triple combination control (Enteroid Assay B); for EC50: read-out: Ent. B EC50
In short: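 Fluorescence read over 15 min after chloride-free stimulation (10 μM forskolin, 100 μM IBMX, 300 nM Compound III) gave chloride transport, reported as % activity versus a triple-corrector/potentiator control. Beforehand, human enteroid cells had 18-24 h compound exposure at 37° C and 25 min methyl oxonol dye loading at room temperature.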

[3] = Table 7, human enteroid cells, 18-24 hours, acute 10 μM forskolin and 300 nM ivacaftor
[4] = Table 6, human enteroid cells, 18-24 hours, acute 10 μM forskolin and 300 nM ivacaftor
[5] = Table 8, human enteroid cells, 18-24 hours, acute 10 μM forskolin and 300 nM ivacaftor

- Emax (F508del; Table 6): > 60%
- EC50 (F508del; Table 6): < 1000 nM
- Ent. A Max Activity (CFTR [1]; Table 6): +++ (+++ is >60%)
- EC50 (CFTR [1]; [4]): < 1000 nM
SMILES: Cc1cccc(C)c1-c1cc2nc(n1)NS(=O)(=O)c1cccc(c1)C(=O)N(CCC1CCOCC1)[C@H](CCC1(C(F)(F)F)CC1)CO2 (single isomer, unassigned) [Compound 72, 6-(2,6-Dimethylphenyl)-2,2-dioxo-12-(2-tetrahydropyran-4-ylethyl)-11-[2-[1-(trifluoromethyl)cyclopropyl]ethyl]-9-oxa-2λ^6-thia-3,5,12,19-tetrazatricyclo[12.3.1.14,8]nonadeca-1(18),4(19),5,7,14,16-hexaen-13-one]

- Ent. A Max Activity (CFTR [1]; Table 6): +++ (+++ is >60%)
- EC50 (CFTR [1]; [4]): < 1000 nM
- Ent. B Max Activity (CFTR [2]; Table 6): +++ (+++ is >60%)
- EC50 (CFTR [2]; [4]): < 1000 nM
SMILES: COCCN1C(=O)c2cccc(c2)S(=O)(=O)Nc2nc(cc(-c3c(C)cccc3C)n2)OC[C@H]1CC(C)C [Compound 363]

- Emax (F508del; Table 7): > 60%
- EC50 (F508del; Table 7): 1000 to 3000 nM
SMILES: Cc1cccc(C)c1-c1cc2nc(n1)NS(=O)(=O)c1cccc(c1)C(=O)N(CCC(C)(C)C)C(C(F)(F)F)CO2 (centres unmarked) [Compound 373]

- Emax (F508del; Table 7): > 60%
- EC50 (F508del; Table 7): < 1000 nM
SMILES: Cc1cccc(C)c1-c1cc2nc(n1)NS(=O)(=O)c1cccc(c1)C(=O)N(C)C[C@@H](c1ccc(C3CC3)cc1)O2 [Compound 668]

- Ent. B Max Activity (CFTR [2]; Table 7): +++ (+++ is >60%)
- EC50 (CFTR [2]; [3]): < 1000 nM
SMILES: Cc1cccc(C)c1-c1cc2nc(n1)NS(=O)(=O)c1cccc(c1)C(=O)N(CCOC(F)(F)F)[C@H](CC(C)C)CO2 [Compound 1103]

- Ent. B Max Activity (CFTR [2]; Table 7): +++ (+++ is >60%)
- EC50 (CFTR [2]; [3]): < 1000 nM
SMILES: Cc1cccc(C)c1-c1cc2nc(n1)NS(=O)(=O)c1cccc(c1)C(=O)N(CC#N)[C@H](CC(C)C)CO2 [Compound 1104]

- Ent. B Max Activity (%) (CFTR [2]; Table 9): ++ (++ is 30-60%)
- EC50 (CFTR [2]; Table 9): < 1000 nM
SMILES: Cc1cccc(C)c1-c1cc2nc(n1)NS(=O)(=O)c1cccc(c1)C(=O)N(CCC1(C(F)(F)F)CC1)[C@@H]1CN(C3CC4(CCCCC4)C3)C[C@H]1O2 [Compound 1190, (3R,7R)-19-(2,6-Dimethylphenyl)-5-{spiro[3.5]nonan-2-yl}-8-{2-[1-(trifluoromethyl)cyclopropyl]ethyl}-2-oxa-15λ^6-thia-5,8,16,18,21-pentaazatetracyclo[15.3.1.110,14.03,7]docosa-1(20),10(22),11,13,17(21),18-hexaene-9,15,15-trione]

- Ent. B Max Activity (%) (CFTR [2]; Table 9): +++ (+++ is >600%)
- EC50 (CFTR [2]; Table 9): < 1000 nM
SMILES: Cc1cccc(C)c1-c1cc2nc(n1)NS(=O)(=O)c1cccc(c1)C(=O)N(CCC1CCOCC1)[C@@H]1CN(C3CC4(CCCC4)C3)C[C@H]1O2 [Compound 1191, (3R,7R)-19-(2,6-Dimethylphenyl)-8-[2-(oxan-4-yl)ethyl]-5-{spiro[3.4]octan-2-yl}-2-oxa-15λ^6-thia-5,8,16,18,21-pentaazatetracyclo[15.3.1.110,14.03,7]docosa-1(20),10(22),11,13,17(21),18-hexaene-9,15,15-trione]

- Ent. A Max Activity (%) (CFTR [1]; Table 9): +++ (+++ is >600%)
- EC50 (CFTR [1]; Table 9): < 1000 nM
- Ent. B Max Activity (%) (CFTR [2]; Table 9): ++ (++ is 30-60%)
- EC50 (CFTR [2]; Table 9): < 1000 nM
SMILES: CCN1C(=O)c2cccc(c2)S(=O)(=O)Nc2nc(cc(-c3c(C)cccc3C)n2)O[C@@H]2CN(C3CC4(CCCC4)C3)C[C@H]21 [Compound 1192, (3R,7R)-19-(2,6-Dimethylphenyl)-8-ethyl-5-{spiro[3.4]octan-2-yl}-2-oxa-15λ^6-thia-5,8,16,18,21-pentaazatetracyclo[15.3.1.110,14.03,7]docosa-1(20),10(22),11,13,17(21),18-hexaene-9,15,15-trione]

More lines, now with the values behind:

SMILES: Cc1cccc(C)c1-c1cc2nc(n1)NS(=O)(=O)c1cccc(c1)C(=O)N(C)C[C@H](c1ccc(C(C)(C)C)cc1)O2 (single isomer, unassigned) [Compound 11, 10-(4-tert-Butylphenyl)-6-(2,6-dimethylphenyl)-12-methyl-2,2-dioxo-9-oxa-2λ^6-thia-3,5,12,19-tetrazatricyclo[12.3.1.14,8]nonadeca-1(18),4(19),5,7,14,16-hexaen-13-one]
- Emax (F508del; Table 7): > 60%
- EC50 (F508del; Table 7): < 1000 nM
- Ent. A Max Activity (CFTR [1]; Table 7): +++ (+++ is >60%)
- EC50 (CFTR [1]; [3]): < 1000 nM

SMILES: Cc1cccc(C)c1-c1cc2nc(n1)NS(=O)(=O)c1cccc(c1)C(=O)N(C)C[C@@H](c1ccc(C(C)(C)C)cn1)O2 (single isomer, unassigned) [Compound 102, 10-(5-tert-butyl-2-pyridyl)-6-(2,6-dimethylphenyl)-12-methyl-2,2-dioxo-9-oxa-2λ^6-thia-3,5,12,19-tetrazatricyclo[12.3.1.14,8]nonadeca-1(18),4(19),5,7,14,16-hexaen-13-one]
- Emax (F508del; Table 7): > 60%
- EC50 (F508del; Table 7): < 1000 nM
- Ent. A Max Activity (CFTR [1]; Table 7): + (+ is <30%)
- EC50 (CFTR [1]; [3]): 1000 to 3000 nM

SMILES: Cc1cccc(C)c1-c1cc2nc(n1)NS(=O)(=O)c1cccc(c1)C(=O)N(C)C[C@H](c1ccc(C(C)(C)C)cn1)O2 (single isomer, unassigned) [Compound 103, 10-(5-tert-butyl-2-pyridyl)-6-(2,6-dimethylphenyl)-12-methyl-2,2-dioxo-9-oxa-2λ^6-thia-3,5,12,19-tetrazatricyclo[12.3.1.14,8]nonadeca-1(18),4(19),5,7,14,16-hexaen-13-one]
- Emax (F508del; Table 7): > 60%
- EC50 (F508del; Table 7): < 1000 nM
- Ent. A Max Activity (CFTR [1]; Table 7): +++ (+++ is >60%)
- EC50 (CFTR [1]; [3]): < 1000 nM

SMILES: Cc1cccc(C)c1-c1cc2nc(n1)NS(=O)(=O)c1cccc(c1)C(=O)N(Cc1ncccn1)[C@H](CC(C)C)CO2 [Compound 77, (11R)-6-(2,6-Dimethylphenyl)-11-isobutyl-2,2-dioxo-12-(pyrimidin-2-ylmethyl)-9-oxa-2λ^6-thia-3,5,12,19-tetrazatricyclo[12.3.1.14,8]nonadeca-1(18),4(19),5,7,14,16-hexaen-13-one]
- Ent. A Max Activity (CFTR [1]; Table 6): +++ (+++ is >60%)
- EC50 (CFTR [1]; [4]): < 1000 nM
- Ent. B Max Activity (CFTR [2]; Table 6): +++ (+++ is >60%)
- EC50 (CFTR [2]; [4]): < 1000 nM

SMILES: Cc1cccc(C)c1-c1cc2nc(n1)NS(=O)(=O)c1cccc(c1)C(=O)N(Cc1cccc(CN(C)C)c1)[C@H](CC(C)C)CO2 [Compound 1102]
- Ent. B Max Activity (CFTR [2]; Table 8): +++ (+++ is >60%)
- EC50 (CFTR [2]; [5]): < 1000 nM

SMILES: Cc1cccc(C)c1-c1cc2nc(n1)NS(=O)(=O)c1cccc(c1)C(=O)N(CCC(C)(C)C#N)[C@H](CC(C)C)CO2 [Compound 1105]
- Ent. B Max Activity (CFTR [2]; Table 7): +++ (+++ is >60%)
- EC50 (CFTR [2]; [3]): < 1000 nM

SMILES: Cc1cccc(C)c1-c1cc2nc(n1)NS(=O)(=O)c1cccc(c1)C(=O)N(Cc1ccncc1)[C@H](CC(C)C)CO2 [Compound 1106]
- Ent. A Max Activity (CFTR [1]; Table 7): +++ (+++ is >60%)
- EC50 (CFTR [1]; [3]): 1000 to 3000 nM
- Ent. B Max Activity (CFTR [2]; Table 7): ++ (++ is 30-60%)
- EC50 (CFTR [2]; [3]): 1000 to 3000 nM

SMILES: Cc1cccc(C)c1-c1cc2nc(n1)NS(=O)(=O)c1cccc(c1)C(=O)N(Cc1ccc(C(=O)N(C)C)cn1)[C@H](CC(C)(C)C)CO2 [Compound 1110]
- Ent. B Max Activity (CFTR [2]; Table 8): +++ (+++ is >60%)
- EC50 (CFTR [2]; [5]): < 1000 nM
